Data published in patent US8187822B2, “Methods to identify modulators” (Givaudan S.A., priority 2007, dated 2012).

Target: T1, TAS2R1 (Homo sapiens, UniProt Q9NYW7)
T1 construct: The full length gene of human TAS2R44 was amplified by polymerase chain reaction (PCR) using gene-specific primers that span the entire coding region; RSS tag (first 45 amino acids of rat somatostatin receptor subtype 3) (N); expressed in transfected cells
T1 sequence (Q9NYW7 1-299): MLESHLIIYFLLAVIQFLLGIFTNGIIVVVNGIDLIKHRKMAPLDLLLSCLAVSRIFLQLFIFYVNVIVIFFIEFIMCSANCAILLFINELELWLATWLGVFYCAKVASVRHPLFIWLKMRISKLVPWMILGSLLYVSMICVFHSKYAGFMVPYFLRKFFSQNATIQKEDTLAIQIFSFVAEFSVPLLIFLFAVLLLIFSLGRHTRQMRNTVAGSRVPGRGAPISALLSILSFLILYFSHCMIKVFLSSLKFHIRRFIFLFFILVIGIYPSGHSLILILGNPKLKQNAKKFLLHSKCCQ
Test: Fluo-4 calcium assay, HEK293T cells stably expressing Gα16-gustducin44 and TAS2R1
Format: cell-based
Experimental: Cell lines that stably expresses a SABR (TAS2R44, TAS2R1, TAS2R10) was generated by transfecting pcDNA3.1Zeo-SABR into HEK293T/Gα16-gustducin 44 cells (both formed as described in example 1). The host cell line HEK-293T is commercially available from the American Tissue Culture Collection (ATCC), ATCC®# CRL-11268.
TAS2R1 expressing cells were identified by their response to 0.5 mM chloramphenicol (a known TAS2R1 agonist as described in WO 2006/053771) in addition to sucralose, which was determined via automated fluorimetric imaging on the FLIPR-Tetra instrumentation (Molecular Devices) using the methods described in Example 3. One clone was selected resulting in the HEK293T/Gα16-gustducin 44/TAS2R1 cell line.
At day 0, the HEK293T cell line expressing Gα16-gustducin44 and a TAS2R bitter taste receptor formed as described in examples 2b or 2c was seeded in antibiotic-free growth medium (standard DMEM with 10% (v/v) heat-inactivated fetal bovine serum, 2 mM L-glutamine[…]) into black wall/clear bottom 96-well plates, coated with poly(ethylenimine) (0.005% v/v) at a concentration of 15,000 cells per well and incubated for 48 hours in humidified atmosphere (37° C., 5% CO2).
At the time of the assay, the growth medium was discarded and the cells were in humidified atmosphere (37° C., 5% CO2) for 1 hour with 50 μl of loading buffer consisting of 1.5 μM Fluo-4 AM and […] probenicid (Sigma-Aldrich, St. Louis, Mo., US) in DMEM.
Afterwards, the 96-well plate was washed 5 times with 100 μl of assay buffer (130 mM NaCl, 5 mM KCl, 10 mM HEPES, 2 mM CaCl2, and 5 mM dextrose, pH 7.4) per well, using an automated plate washer (BioTek). The plate was further incubated for 30 minutes at room temperature in the dark to allow for complete de-esterification of the Fluo-4. Afterwards the plate was washed 5 times with 100 μl of assay buffer per well, and reconstituted with 100 μl of assay buffer per well.
For assay reading, the plate was placed in a Fluorometric Imaging Plate Reader (FLIPR) (FLIPR-TETRA™, Molecular Devices, Sunnyvale, Calif., US), and receptor activation was initiated by addition of 100 μl of a twofold concentrated agonist stock solution (to give the desired agonist end concentration when added to the 100 microliter assay buffer volume), which was prepared in assay buffer.
Fluorescence was continuously monitored for 20 seconds to give a signal baseline (averaged to give F0) prior to agonist addition and for 120 seconds after agonist addition. The change in signal divided by F0 gives ΔF/F0 indicated in the table, with ΔF being the maximum signal occurring within the 120 seconds minus the minimum signal (occurring within the 120 seconds after agonist addition.
All data was collected from at least two independent experiments each carried out in triplicate.
The obtained calcium signals were corrected for the response of cells expressing only the G Protein α subunit (Gα16-gustducin44) and normalized to the fluorescence of cells prior to the stimulus using ΔF/F0 (Fmax−Fmin/F0).
The intracellular calcium response following addition of sucralose was determined in HEK293T cell line stably expressing Gα16-gustducin44 and TAS2R1 formed as described in example 2c.

TAS2R1 ΔF/F0 (sucralose 0.3906 mM): 0.052
TAS2R1 ΔF/F0 (sucralose 0.7813 mM): 0.050
TAS2R1 ΔF/F0 (sucralose 1.5625 mM): 0.047
TAS2R1 ΔF/F0 (sucralose 3.1250 mM): 0.059
TAS2R1 ΔF/F0 (sucralose 6.2500 mM): 0.061
TAS2R1 ΔF/F0 (sucralose 12.5000 mM): 0.072
TAS2R1 ΔF/F0 (sucralose 25.0000 mM): 0.104
TAS2R1 ΔF/F0 (sucralose 50.0000 mM): 0.197
TAS2R1 ΔF/F0 (sucralose 100.0000 mM): 0.518
Structure (SMILES): OC[C@H]1O[C@H](O[C@]2(CCl)O[C@H](CCl)[C@@H](O)[C@@H]2O)[C@H](O)[C@@H](O)[C@H]1Cl [Sucralose, sucralose]
calcium signaling in TAS2R1 cells, in words: significant concentration-dependent increase in calcium signaling
